# Experimental data reported in PubChem BioAssay AID1918995 (Molecular Pharmacology Branch, DTP, NCI, 2023).
# System: 324938-238-R-J1-PDC complex spheroid growth, % test/control
# Assay: Anticancer human tumor 324938-238-R-J1-PDC patient-derived bladder carcinoma cell line growth inhibition [AhR]
# Conditions: for IC50: curve of first compound; for viability, T/C: stronger effect = lower value
# How it was run: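 Complex tumor spheroids co-cultured with HUVEC and human MSC stroma; AhR antagonists tested in combination with standard-of-care and investigational agents. Top concentration at or near clinical Cmax (else 10 microM), half-log dilutions; growth expressed as percent test/control.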
# [1] = second compound 0.1 µM, first compound 0.0316 µM
# [2] = second compound 0.1 µM, first compound 0.1 µM
# [3] = second compound 0.316 µM, first compound 0.0316 µM
# [4] = second compound 0.316 µM, first compound 0.1 µM
# [5] = second compound 1 µM, first compound 0.0316 µM
# [6] = second compound 1 µM, first compound 0.1 µM
# [7] = second compound 3.16 µM, first compound 0.0316 µM
# [8] = second compound 3.16 µM, first compound 0.1 µM
# [9] = second compound 10 µM, first compound 0.0316 µM
# [10] = second compound 10 µM, first compound 0.1 µM
# 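Note: spheroids exposed to agents for seven days before viability read.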
structure (smiles),measurement,setting,value
CC1(C)CCC(CN2CCN(c3ccc(C(=O)NS(=O)(=O)c4ccc(NCC5CCOCC5)c([N+](=O)[O-])c4)c(Oc4cnc5[nH]ccc5c4)c3)CC2)=C(c2ccc(Cl)cc2)C1 + Cc1ccccc1N=Nc1ccc(NC(=O)c2ccnn2C)c(C)c1,IC50,second compound 0.1 µM,9.57 µM
same,IC50,second compound 0.316 µM,> 10 µM
same,IC50,second compound 1 µM,8.76 µM
same,IC50,second compound 3.16 µM,6 µM
same,IC50,second compound 10 µM,5.68 µM
same,"viability, T/C",[1],87.7%
same,"viability, T/C",[2],92.8%
same,"viability, T/C","second compound 0.1 µM, first compound 0.316 µM",93.6%
same,"viability, T/C","second compound 0.1 µM, first compound 1 µM",87.8%
same,"viability, T/C","second compound 0.1 µM, first compound 3.16 µM",80.7%
same,"viability, T/C","second compound 0.1 µM, first compound 10 µM",48.8%
same,"viability, T/C",[3],89.4%
same,"viability, T/C",[4],90.5%
same,"viability, T/C","second compound 0.316 µM, first compound 0.316 µM",88%
same,"viability, T/C","second compound 0.316 µM, first compound 1 µM",83.3%
same,"viability, T/C","second compound 0.316 µM, first compound 3.16 µM",72%
same,"viability, T/C","second compound 0.316 µM, first compound 10 µM",52%
same,"viability, T/C",[5],83.5%
same,"viability, T/C",[6],85.8%
same,"viability, T/C","second compound 1 µM, first compound 0.316 µM",80.7%
same,"viability, T/C","second compound 1 µM, first compound 1 µM",71.8%
same,"viability, T/C","second compound 1 µM, first compound 3.16 µM",71.1%
same,"viability, T/C","second compound 1 µM, first compound 10 µM",46.7%
same,"viability, T/C",[7],72.4%
same,"viability, T/C",[8],71.8%
same,"viability, T/C","second compound 3.16 µM, first compound 0.316 µM",68.9%
same,"viability, T/C","second compound 3.16 µM, first compound 1 µM",69%
same,"viability, T/C","second compound 3.16 µM, first compound 3.16 µM",61.3%
same,"viability, T/C","second compound 3.16 µM, first compound 10 µM",41%
same,"viability, T/C",[9],73.8%
same,"viability, T/C",[10],70.2%
same,"viability, T/C","second compound 10 µM, first compound 0.316 µM",69.6%
same,"viability, T/C","second compound 10 µM, first compound 1 µM",67.9%
same,"viability, T/C","second compound 10 µM, first compound 3.16 µM",58%
same,"viability, T/C","second compound 10 µM, first compound 10 µM",41.9%
CCN(c1cc(-c2ccc(CN3CCOCC3)cc2)cc(C(=O)NCc2c(C)cc(C)[nH]c2=O)c1C)C1CCOCC1 + Cc1ccccc1N=Nc1ccc(NC(=O)c2ccnn2C)c(C)c1,IC50,second compound 0.1 µM,> 3 µM
same,IC50,second compound 0.316 µM,> 3 µM
same,IC50,second compound 1 µM,> 3 µM
same,IC50,second compound 3.16 µM,> 3 µM
same,IC50,second compound 10 µM,> 3 µM
same,"viability, T/C","second compound 0.1 µM, first compound 0.00949 µM",123%
same,"viability, T/C","second compound 0.1 µM, first compound 0.03 µM",113%
same,"viability, T/C","second compound 0.1 µM, first compound 0.0949 µM",111%
same,"viability, T/C","second compound 0.1 µM, first compound 0.3 µM",93.2%
same,"viability, T/C","second compound 0.1 µM, first compound 0.949 µM",96.2%
same,"viability, T/C","second compound 0.1 µM, first compound 3 µM",93.3%
same,"viability, T/C","second compound 0.316 µM, first compound 0.00949 µM",100%
same,"viability, T/C","second compound 0.316 µM, first compound 0.03 µM",111%
same,"viability, T/C","second compound 0.316 µM, first compound 0.0949 µM",106%
same,"viability, T/C","second compound 0.316 µM, first compound 0.3 µM",103%
same,"viability, T/C","second compound 0.316 µM, first compound 0.949 µM",108%
same,"viability, T/C","second compound 0.316 µM, first compound 3 µM",94.8%
same,"viability, T/C","second compound 1 µM, first compound 0.00949 µM",102%
same,"viability, T/C","second compound 1 µM, first compound 0.03 µM",101%
same,"viability, T/C","second compound 1 µM, first compound 0.0949 µM",94.9%
same,"viability, T/C","second compound 1 µM, first compound 0.3 µM",90%
same,"viability, T/C","second compound 1 µM, first compound 0.949 µM",98.7%
same,"viability, T/C","second compound 1 µM, first compound 3 µM",93.2%
same,"viability, T/C","second compound 3.16 µM, first compound 0.00949 µM",82.4%
same,"viability, T/C","second compound 3.16 µM, first compound 0.03 µM",100%
same,"viability, T/C","second compound 3.16 µM, first compound 0.0949 µM",81.9%
same,"viability, T/C","second compound 3.16 µM, first compound 0.3 µM",90.2%
same,"viability, T/C","second compound 3.16 µM, first compound 0.949 µM",91.8%
same,"viability, T/C","second compound 3.16 µM, first compound 3 µM",93.6%
same,"viability, T/C","second compound 10 µM, first compound 0.00949 µM",88.4%
same,"viability, T/C","second compound 10 µM, first compound 0.03 µM",89.6%
same,"viability, T/C","second compound 10 µM, first compound 0.0949 µM",82%
same,"viability, T/C","second compound 10 µM, first compound 0.3 µM",87%
same,"viability, T/C","second compound 10 µM, first compound 0.949 µM",77.5%
same,"viability, T/C","second compound 10 µM, first compound 3 µM",84.8%
Cn1ncnc1C1c2n[nH]c(=O)c3cc(F)cc(c23)NC1c1ccc(F)cc1 (stereo not given) + Cc1ccccc1N=Nc1ccc(NC(=O)c2ccnn2C)c(C)c1,IC50,second compound 0.1 µM,> 0.1 µM
same,IC50,second compound 0.316 µM,> 0.1 µM
same,IC50,second compound 1 µM,> 0.1 µM
same,IC50,second compound 3.16 µM,> 0.1 µM
same,IC50,second compound 10 µM,> 0.1 µM
same,"viability, T/C","second compound 0.1 µM, first compound 0.000316 µM",103%
same,"viability, T/C","second compound 0.1 µM, first compound 0.001 µM",114%
same,"viability, T/C","second compound 0.1 µM, first compound 0.00316 µM",107%
same,"viability, T/C","second compound 0.1 µM, first compound 0.01 µM",83.6%
same,"viability, T/C",[1],81.1%
same,"viability, T/C",[2],63.8%
same,"viability, T/C","second compound 0.316 µM, first compound 0.000316 µM",98.4%
same,"viability, T/C","second compound 0.316 µM, first compound 0.001 µM",100%
same,"viability, T/C","second compound 0.316 µM, first compound 0.00316 µM",103%
same,"viability, T/C","second compound 0.316 µM, first compound 0.01 µM",74.4%
same,"viability, T/C",[3],76.1%
same,"viability, T/C",[4],69%
same,"viability, T/C","second compound 1 µM, first compound 0.000316 µM",92%
same,"viability, T/C","second compound 1 µM, first compound 0.001 µM",96.5%
same,"viability, T/C","second compound 1 µM, first compound 0.00316 µM",95.7%
same,"viability, T/C","second compound 1 µM, first compound 0.01 µM",66.5%
same,"viability, T/C",[5],85%
same,"viability, T/C",[6],62.4%
same,"viability, T/C","second compound 3.16 µM, first compound 0.000316 µM",83.9%
same,"viability, T/C","second compound 3.16 µM, first compound 0.001 µM",83.7%
same,"viability, T/C","second compound 3.16 µM, first compound 0.00316 µM",86.9%
same,"viability, T/C","second compound 3.16 µM, first compound 0.01 µM",73.6%
same,"viability, T/C",[7],78.3%
same,"viability, T/C",[8],61.1%
same,"viability, T/C","second compound 10 µM, first compound 0.000316 µM",78.2%
same,"viability, T/C","second compound 10 µM, first compound 0.001 µM",77.8%
same,"viability, T/C","second compound 10 µM, first compound 0.00316 µM",77.2%
same,"viability, T/C","second compound 10 µM, first compound 0.01 µM",73.5%
same,"viability, T/C",[9],69.2%
same,"viability, T/C",[10],66%
